Reference: patent US20120202287A1, “Stem Cell Culture Methods” (priority 2009, published 2012)
“Also recorded” adds a separate entry of the source.

Assays:
Assay type in all cases: cell-based, human
[1] = test system: hESCs; test: Directed monolayer neuronal differentiation with and without EHNA
Description: […] RNA samples were taken at various time intervals and a variety of marker gene expression was measured using qRT-PCR.
In FIGS. 11a-d, the value of 1 was set to the level of expression in undifferentiated hES cells. In FIG. 12a, the value of 1 was set to the expression level in the untreated control samples.

[2] = test system: hESCs (SA121); test: Feeder-free culture of hESCs without exogenous FGF, supplemented with EHNA
Description: Cells were grown on fibronectin coated dishes. A fibronectin (Calbiochem) solution (0.1 mg/ml) (diluted in PBS) is used to coat the tissue culture dishes for 15 mins at 37 C.
The fully supportive media used to culture the stem cells was a 1:1 mixture of defined media (see below) and conditioned vitrohES. vitrohES media was conditioned for 24 hours on a layer of mitotically inactivated mouse embryonic fibroblasts plated at 4×10^5 cells/ml of conditioned media. Passaging was performed first by removing the media from the cells and washing with PBS. Trypsin (sourced from Invitrogen) was added to the cells and incubated for 1-2 mins at room temperature. Fresh media was added to neutralize the cells and then gently scraped off using a cell scraper and passaged 1 in 4 to fibronectin coated dishes.
After washing with PBS, cells were fixed in 4% paraformaldehyde (Sigma) for 10 mins at room temperature and washed again. Cells were then permeabilised in ethanol for 2 minutes. Blocking was performed in 10% Goat serum (sigma)/PBS (Invitrogen) for one hour at room temperature. The following primary antibodies (dilutions in brackets) were then incubated for 1 hour at room temperature diluted in blocking solution: mouse anti-POU5F1 (Santa cruz) (1:250), rabbit anti-PAX6 (Chemicon) (1:1000), mouse anti B-tubulin III (Sigma) (1:1000), mouse anti-Alpha-feta-protein (AFP) (Sigma) (1:400), mouse anti-muscle-specific actin (SMA) (Dako) (1:50), SSEA1 (Hybdridoma bank University of IOWA) (1:5), SSEA3 (Hybdridoma bank University of IOWA) (1:5), SSEA4 (Hybdridoma bank. University of IOWA) (1:5), Tra1-60 (Santa cruz) (1:200) and Tra1-80 (Santa Cruz) (1:200). […] All immunofluorescence was visualised and captures using Zeiss Axiovision image analysis system (http://www.ziess.com).
(§1) hESCs (SA121) were placed into standard feeder free conditions without exogenous FGF (including conditioned media made without addition of exogenous FGF) but supplemented with 10 μM EHNA. Cells were initially seeded from a trypsin passage of a standard, FGF containing, feeder free culture (passage 33 post feeder free; p100 total).
Controls were also set up without FGF or EHNA. Three lines were set up to grow independently for each condition and these were routinely passaged using trypsin as normal. Passaging was usually a 1 in 4 split approximately every 4 days.
as §1, with “A further culture of SA121 was transferred to” for “hESCs (SA121) were placed into”, “7” for “33”, “p 48” for “p100”

[3] = test system: hESC line SA461; test: hESC line transferred directly from MEF feeders to feeder-free culture without FGF, supplemented with EHNA; conditions: passage 7, 10 uM EHNA, no exogenous FGF
Description: A culture of the hESC line SA461 was transferred from a supportive MEF feeder layer directly, using manual dissection, to standard feeder free conditions in the absence of exogenous FGF but supplemented with 10 uM EHNA. A control was also grown with neither FGF nor EHNA present. Cells were subsequently passaged by the standard trypsin feeder free technique. It was determined by passage 7 that the EHNA containing cultures were almost 100% positive for POU5F1 whereas positive staining in the cultures absent for FGF and EHNA was minimal (FIG. 8).

[4] = test system: SA121 hESCs; test: General (monolayer) differentiation on matrigel in defined media, qRT-PCR of stem cell and differentiation markers after 14 days; design: key to Full EHNA effect: those which maintained at least 50% of the level of NANOG-expression in comparison to EHNA and those that inhibited the expression of PAX6 to 50% or less than the value untreated controls were considered to have an EHNA-like effect; conditions: 14 days, qRT-PCR
Description: In order to ascertain the efficacy of the compounds of the present invention, each compound was tested to determine whether it can maintain the stem cell marker NANOG and/or block the differentiation marker PAX6 in the face of differentiating conditions in a manner similar to EHNA. Cells enzymatically passaged onto matrigel-coated dishes and grown for 2 weeks in defined media with or without (control) compound addition were analysed by qRT-PCR to determine the level of NANOG and PAX6 expression.
For general differentiation experiments cells were passaged with trypsin onto matrigel coated twelve-well dishes in the fully supportive media (see above). The media was then changed to defined media 24 h later and any experimental component was first added at this point. The media and experimental supplement were changed daily.
Cells were routinely harvested for qRT-PCR analysis 14 days after the first addition of the experimental compound.
Total RNA was extracted using QIAGEN RNeasy kits (Qiagen Inc, Valencia, Calif., http://www.qiagen.com) and DNaseI treatment was performed using Turbo DNA-Free (Ambion). The absence of genomic DNA was confirmed by quantitative PCR (qPCR) (see below) using glyceraldehyde-3-phosphate dehydrogenase (GAPDH) Taqman primers and probe (MWG). cDNA was synthesized with 2 μg total RNA in 20 μl using Superscript II according to manufacturers' instructions ((Carlsbad, Calif., http://www.Invitrogen.com)). For qPCR, cDNAs were diluted 1 in 60 and 5 μl used per sample in a 15 μl total reaction volume. Platinum pPCR supermix UDG with Rox (Carlsbad, Calif., http://www.Invitrogen.com) was used according to the manufacturer's instructions using an Applied Biosystems 7300 real time PCR system (Applied Biosystems, Warrington, UK, http://europe.appliedbiosystems.com). Each reaction contained 0.6 μM of each primer and Taqman probe (MWG). Biological and technical replicates were each performed in triplicate for each sample, standardised to the GAPDH housekeeping gene and relative expression values were calculated using the 7300 system SDS software (Applied Biosystems, Warrington, UK, http://europe.appliedbiosystems.com).
Cells were enzymatically passaged onto matrigel-coated dishes and grown for 2 weeks in defined media. After 14 days, qRT-PCR was utilised to analyse the expression of a variety of markers of pluripotency and differentiation. In the graphs in FIG. 9 the value 1 was set to the expression level of the gene in undifferentiated SA121 hESCs.
Cells were enzymatically passaged onto matrigel-coated dishes and grown for 2 weeks in defined media (1× confluent T25 tissue culture flask was passaged to 2×12 well dishes) with or without (control) compound addition. All compounds were added at 10 uM and each was performed in triplicate. Media and compounds were changed every 48 hours. After 14 days RNA was isolated and qRT-PCR was utilised to analyse the expression of NANOG and PAX6. The results are illustrated in FIGS. 13 to 17.
In the graphs in FIGS. 13, 14 15, 16 and 17 the value 1 was set relative to the expression level of the gene in the control (no compound) samples. […] This experiment allowed the effect of the EHNA-related compounds to be measured directly in comparison to EHNA. […] Those which had on effect, to these levels, on either PAX6 or NANOG were considered to have a partial-EHNA effect.

[5] = 10 passages, immunofluorescence

CCCCCC[C@@H]([C@@H](C)O)n1cnc2c(N)ncnc21.Cl [EHNA, erythro-9-(2-Hydroxy-3-nonyl)adenine, HCl]
cells staining positive for POU5F1 versus untreated differentiation ([1]; 4 weeks (28 days) of neuronal differentiation): At least 10 times
PAX6 levels relative to the control differentiation ([1]; 4 weeks of differentiation (passage at 2 weeks)): > 50%
levels of the stem cells markers NANOG and ZFP42 ([1]; 4 weeks of differentiation, versus control): considerably higher levels
effect on PAX6 / neuronal marker expression ([1]; early neuronal differentiation, qRT-PCR, HCl): delays the onset and reduces the amount of neuronal marker expression; also recorded: delay or reduce the level of expression
expression levels of the stem cell genes POU5F1, NANOG and ZFP42 ([1]; first 2 weeks of neuronal differentiation, qRT-PCR): maintained largely at undifferentiated levels
maintenance of hESCs in an undifferentiated state in the absence of FGF ([2]; 10 μM EHNA, feeder free, no exogenous FGF): can be maintained in an undifferentiated state in the absence of FGF if EHNA is present
differentiation marker SSEA1 [2, 5]: negative
stem-cell markers SSEA3, SSEA4, TRA-160, TRA-180 and OCT4 [2, 5]: positive
expression of the stem cell markers NANOG and POU5F1 in the absence of FGF ([2]; FIG. 3): maintained
ability to differentiate to all three germ layers ([2]; after at least 22 passages without FGF with EHNA): can differentiate to all three germ layers
karyotype ([2]; passage 21, at least one replicate line): karyotypically normal
POU5F1 staining ([2]; passage 21, immunofluorescence): all positive for POU5F1
hESC gene expression (TLDA) ([2]; passage 30, compared with hESCs grown with FGF without EHNA): appropriate hESC gene expression
cells positive for POU5F1 [3]: ~100%
Full EHNA effect ([4]; 10 uM, NANOG at least 50% of EHNA level and PAX6 50% or less of untreated control): X
SOX2 transcription in differentiating conditions ([4]; FIG. 9a): maintained transcription at the same level as seen in undifferentiated hESCs and the untreated samples
stem cell marker expression (NANOG, ZFP42, POU5F1) in differentiating conditions ([4]; FIG. 9a): distinctly inhibited the down-regulation of the stem cell markers NANOG, ZFP42 and POU5F1
induction of other differentiation markers (AFP, CD34, Brachyury, PECAM1, CDX2 and FOXA2) ([4]; data not shown): No induction of these markers
NANOG expression in differentiating conditions ([4]; relative to untreated control): clearly maintains a higher level of NANOG than the untreated control
PAX6 expression in differentiating conditions ([4]; HCl): inhibited the rise of PAX6 expression levels; also recorded: inhibits the onset of the differentiation marker PAX6
